In US12144886B2, “Perineural administration of resiniferatoxin for treatment of maladaptive pain” (Sorrento Therapeutics, Inc., priority 2018, dated 2024):

Experiments:
[1] = test system: declawed cat with maladaptive pain; experiment: Tolerance and safety of perineural RTX in a single declawed cat; type: in vivo
Protocol: The safety of the injection of RTX is assessed by comparing the results of a complete blood count (CBC) and a chemistry panel done at screening with the results obtained at day 14. Cats were also monitored for adverse events.
Tolerance, safety, and analgesic effects of RTX administration were evaluated in a single declawed cat with maladaptive pain. […] The cat also presented a self-limiting decreased appetite for 12 hours post injection.

[2] = test system: declawed cats with chronic distal thoracic limb pain; experiment: QoL and pain monitoring (CSOMf, FMPI, owner reports) in open-label trial of perineural RTX in declawed cats; type: in vivo, cat
Protocol: Cats suffering from severe bilateral chronic pain (more than 90 days) as a result of severe complications after onychectomy were enrolled in this study (an exploratory, open-label, multicenter clinical trial). Thirteen (13) cases were treated for initial pain and reduced quality of life (QoL). Then, bilateral perineural distal limb injections (ring block technique) were administered under general anesthesia (a combination of diphenhydramine, buprenorphine, dexmedetomidine, ketamine, and isoflurane). Following a published technique (Enomoto et al., 2016) for the nerve block of the manus of the cat, the total dose of RTX was equally distributed adjacent to the 1) superficial branch of the radial nerve, 2) dorsal branch of the ulnar nerve, 3) median nerve and superficial branch of the palmar branch of the ulnar nerve, and 4) deep branch of palmar branch of the ulnar nerve. A total of 2.5 ug (1.25 ug/1 mL per forelimb in Group 1, n=7) and 5 ug (2.5 ug/1 mL per forelimb in Group 2, n=6) of RTX was injected as a one-time treatment. Group 2 included the cat for which detailed results are provided in Example B above. Monitoring of QoL and pain for the following 28 days was accomplished using the Client-Specific Outcome Measures feline (CSOMf), the Feline Musculoskeletal Pain Index (FMPI), two post-injection physical examinations, and videography on days 3, 7, 14, and 28 post injections.

[3] = one cat, 2.5 μg/forelimb perineural

For `C=C(C)[C@]12C[C@@H](C)[C@@]34O[C@](Cc5ccccc5)(O[C@@H]1[C@@H]3C=C(COC(=O)Cc1ccc(O)c(OC)c1)C[C@]1(O)C(=O)C(C)=C[C@@H]41)O2` [RTX, resiniferatoxin], the Allergic-like reactions ([1]; one cat) was “No signs of allergic-like reactions were observed”, the “Edema or pain in the injected areas” value ([1]; one cat) was “no signs of edema or pain were present” and the “Resolution of adverse events (panting, salivation)” value ([1]; one cat) was “resolved within two hours”. The “Complications during RTX administration” value [1, 3] was “No complications were observed”, the Tolerability of injection [1, 3] was “generally well tolerated” and the Adverse events ([1]; one hour post-injection) was “panting and salivation”. For the same molecule, the “Duration of self-limiting decreased appetite” value ([1]; post injection, one cat) was 12 h, the “CSOMf and FMPI scores” value ([2]; 28-day monitoring period, 13 cats) was “clear improvement” and the “Owner-reported natural and pathological adopted behaviors (QoL)” value ([2]; both groups) was “significant changes”. The “Duration of improvements reported informally” value ([2]; in some cases) was “over 6 months” and the “Treatment of distal thoracic limb pain” value ([2]; perineural injections, cats) was “can effectively treat”.
